Laboratory results from patent publication US8802597B2, “Herbicidal pyrimidines” (E I du Pont de Nemours and Company, priority 2003, dated 2014).

Columns and labels:
Assay in all cases: Test A pre/postemergence
Assay type in all cases: in vivo
[1] = tested on: redroot pigweed (Amaranthus retroflexus)
Experimental: (§1) Seeds of barnyardgrass (Echinochloa crus-galli), crabgrass (Digitaria sanguinalis), giant foxtail (Setaria faberi), morningglory (Ipomoea spp.), redroot pigweed (Amaranthus retroflexus) and velvetleaf (Abutilon theophrasti) were planted into a blend of loam soil and sand and treated preemergence with a directed soil spray using test chemicals formulated in a non-phytotoxic solvent mixture which included a surfactant. At the same time these species were also treated with postemergence applications of test chemicals formulated in the same manner.
(§2) Plants ranged in height from 2 to 10 cm and were in the 1- to 2-leaf stage for the postemergence treatment. Treated plants and untreated controls were maintained in a greenhouse for approximately ten days, after which time all treated plants were compared to untreated controls and visually evaluated for injury. Plant response ratings, summarized in Table A, are based on a 0 to 100 scale where 0 is no effect and 100 is complete control. A dash (-) response means no test results.

[2] = tested on: barnyardgrass (Echinochloa crus-galli)
Experimental: as §1, §2

[3] = tested on: velvetleaf (Abutilon theophrasti)
Experimental: as §1, §2

[4] = tested on: giant foxtail (Setaria faberi)
Experimental: as §1, §2

[5] = tested on: crabgrass (Digitaria sanguinalis)
Experimental: as §1, §2

[6] = tested on: morningglory (Ipomoea spp.)
Experimental: as §1, §2

[7] = Postemergence, 125 g ai/ha, 0 to 100 scale (0 no effect, 100 complete control)
[8] = Postemergence, 500 g ai/ha, 0 to 100 scale (0 no effect, 100 complete control)
[9] = Preemergence, 125 g ai/ha, 0 to 100 scale where 0 is no effect and 100 is complete control, approximately ten days
[10] = Preemergence, 500 g ai/ha, 0 to 100 scale where 0 is no effect and 100 is complete control, approximately ten days

Compound	Plant response rating, Pigweed [1, 7]	Plant response rating, Pigweed [1, 8]	Plant response rating, Pigweed [1, 9]	Plant response rating, Pigweed [1, 10]	Plant response rating, Barnyardgrass [2, 7]	Plant response rating, Barnyardgrass [2, 8]	Plant response rating, Barnyardgrass [2, 9]	Plant response rating, Barnyardgrass [2, 10]	Plant response rating, Velvetleaf [3, 7]	Plant response rating, Velvetleaf [3, 8]	Plant response rating, Velvetleaf [3, 9]	Plant response rating, Velvetleaf [3, 10]	Plant response rating, Foxtail, Giant [4, 7]	Plant response rating, Foxtail, Giant [4, 8]	Plant response rating, Foxtail, Giant [4, 9]	Plant response rating, Foxtail, Giant [4, 10]	Plant response rating, Crabgrass [5, 7]	Plant response rating, Crabgrass [5, 8]	Plant response rating, Crabgrass [5, 9]	Plant response rating, Crabgrass [5, 10]	further results
COC(=O)c1nc(-c2ccc(C)cc2)nc(N)c1Br [Compound 82]	45	75	0	70	40	50	0	15	90	90	5	35	0	0	0	0	0	0	0	0	Plant response rating, Morningglory [6, 7]: 20; Plant response rating, Morningglory [6, 8]: 40; Plant response rating, Morningglory [6, 9]: 0; Plant response rating, Morningglory [6, 10]: 0
COC(=O)c1nc(-c2ccc(C)c(F)c2)nc(N)c1Cl [Compound 86]	20	50	0	5	10	30	0	0	70	85	0	10	0	0	0	0	0	0	0	0	Plant response rating, Morningglory [6, 7]: 0; Plant response rating, Morningglory [6, 8]: 20; Plant response rating, Morningglory [6, 9]: 0; Plant response rating, Morningglory [6, 10]: 0
Cc1ccc(-c2nc(N)c(Cl)c(C(=O)O)n2)cc1F [Compound 87]	55	90	85	100	50	90	0	20	90	95	25	95	0	30	0	0	0	10	10	75	Plant response rating, Morningglory [6, 7]: 0; Plant response rating, Morningglory [6, 8]: 15; Plant response rating, Morningglory [6, 9]: 0; Plant response rating, Morningglory [6, 10]: 20
Cc1ccc(-c2nc(N)c(Br)c(C(=O)O)n2)cc1 [Compound 89]	50	100	80	100	60	85	0	50	70	95	20	75	10	45	0	10	0	10	0	60	Plant response rating, Morningglory [6, 7]: 0; Plant response rating, Morningglory [6, 8]: 30; Plant response rating, Morningglory [6, 9]: 0; Plant response rating, Morningglory [6, 10]: 0
Nc1nc(-c2ccc(F)cc2)nc(C(=O)O)c1Cl [Compound 90]	35	90	70	80	0	10	0	35	65	85	10	45	0	30	0	15	0	20	10	50	Plant response rating, Morningglory [6, 7]: 20; Plant response rating, Morningglory [6, 8]: 65; Plant response rating, Morningglory [6, 9]: 0; Plant response rating, Morningglory [6, 10]: 25
Nc1nc(-c2ccc(F)cc2)nc(C(=O)O)c1Br [Compound 93]	45	70	80	90	0	0	5	30	65	80	55	85	0	0	5	35	0	0	25	45	Plant response rating, Morningglory [6, 7]: 40; Plant response rating, Morningglory [6, 8]: 55; Plant response rating, Morningglory [6, 9]: 0; Plant response rating, Morningglory [6, 10]: 5
COC(=O)c1nc(-c2cccc(C)c2)nc(N)c1Cl [Compound 97]	10	30	25	70	30	10	0	0	60	70	45	50	0	0	5	5	0	0	15	25	Plant response rating, Morningglory [6, 7]: 45; Plant response rating, Morningglory [6, 8]: 50; Plant response rating, Morningglory [6, 9]: 0; Plant response rating, Morningglory [6, 10]: 0
